Measurements from patent US4539402A, “Quinazolinone derivatives” (Troponwerke GmbH & Co., priority 1982, dated 1985).
Like-named read-outs stand apart in the source and are kept apart here.

Experiments:
Assay type in all cases: in vivo
orientation motility = assay: influence on orientation motility in mice (sedative action); conditions: Mus musculus, po, read-out: ED50 (influence on orientation motility, sedative action)
Method: Influence on orientation motility in mice was tested to determine the sedative action; an ED50 of 0.5 mg/kg perorally was found for the compound of Example 4.

carrageenan oedema = assay: antiphlogistic action, carrageenan oedema (modified method of Winter et al.); conditions: po; peroral; pure λ-carrageenan as 0.25% suspension in physiological saline
Method: Exp. Biol. Med. 111, 544 (1962), with the modification that pure λ-carrageenan as a 0.25% strength suspension in physiological saline solution was used for oedema provocation. The following ED50 values, for example, were determined using this procedure: […]

[1] = Randall-Selitto test (analgesic action); conditions: Rattus norvegicus, po; perorally, rats
[2] = benzoquinone test (analgesic action); conditions: Mus musculus, po; perorally; mice

SMILES	ED50 (orientation motility)	ED50 (carrageenan oedema)	further results
CN(C)CCCN1c2ccccc2Sc2ccc(Cl)cc21 [chlorpromazine]	3.05 mg/kg		
O=C1c2ccccc2N(c2cccc([N+](=O)[O-])c2)C2=NCCN12 [Example 4, 10-(3-Nitrophenyl)-2,3-dihydroimidazo-[2,1-b]-quinazolin-5(10H)-one]		1.3 mg/kg	ED50 (orientation motility; perorally, mice): 0.5 mg/kg; ED50 [1]: 3.4 mg/kg; ED50 [2]: 3.1 mg/kg
CN1C(=O)CN=C(c2ccccc2)c2cc(Cl)ccc21 [diazepam]	2.8 mg/kg		
O=C1c2ccccc2N(c2cccc(C(F)(F)F)c2)C2=NCCN12 [Example 5, 10-(3-Trifluoromethylphenyl)-2,3-dihydroimidazo-[2,1-b]-quinazolin-5(10H)-one]		25.2 mg/kg	
Nc1cccc(N2C3=NCCN3C(=O)c3ccccc32)c1 [Example 9, 10-(3-Aminophenyl)-2,3-dihydroimidazo-[2,1-b]-quinoazolin-5(10H)-one]		3.1 mg/kg	
